Reference: ChEMBL document CHEMBL4376898, “Enhanced Activity against Multidrug-Resistant Bacteria through Coapplication of an Analogue of Tachyplesin I and an Inhibitor of the QseC/B Signaling Pathway” (J Med Chem, 2020)
Converted amounts (≈) assume the structure as drawn. One block for each compound: values may come before it.

Experiments:
[1] = test system: L02; assay: Cytotoxicity in human L02 cells assessed as reduction in cell viability at >64 ug/ml incubated for 48 hrs by resazurin dye based assay; conditions: l02, 48 h
[2] = Stability in human plasma assessed as parent compound remaining at […] measured after 2 hrs by HPLC analysis; assay type: ADME, cell-free; conditions: read-out: Stability
[3] = test system: L02; assay: Cytotoxicity in human L02 cells assessed as reduction in cell viability at <32 ug/ml incubated for 48 hrs by resazurin dye based assay; conditions: l02, 48 h
[4] = Stability in human plasma assessed as parent compound remaining at […] measured after 6 hrs by HPLC analysis; assay type: ADME, cell-free; conditions: read-out: Stability
[5] = test system: Erythrocyte; assay: Toxicity in human erythrocytes assessed as induction of hemolysis at <50 ug/ml incubated for 1 hr by spectrometry; assay type: cell-based
[6] = Toxicity in human erythrocytes assessed as induction of hemolysis at 16 ug/ml incubated for 1 hr by spectrometry; assay type: cell-based, Erythrocyte; conditions: read-out: Activity
[7] = test system: Staphylococcus aureus; assay: Antimicrobial activity against Staphylococcus aureus BAA 41 assessed as inhibition of visible growth incubated for 18 hrs; assay type: functional
[8] = test system: Escherichia coli; assay: Antimicrobial activity against Escherichia coli ATCC 25923 assessed as inhibition of visible growth incubated for 18 hrs; assay type: functional
[9] = test system: Pseudomonas aeruginosa; assay: Antimicrobial activity against Pseudomonas aeruginosa BAA 2108 assessed as inhibition of visible growth incubated for 18 hrs; assay type: functional
[10] = test system: Staphylococcus aureus; assay: Antimicrobial activity against Staphylococcus aureus BAA 44 assessed as inhibition of visible growth incubated for 18 hrs; assay type: functional
[11] = test system: Enterobacter cloacae; assay: Antimicrobial activity against Enterobacter cloacae BAA 1143 assessed as inhibition of visible growth incubated for 18 hrs; assay type: functional
[12] = test system: Escherichia coli; assay: Antimicrobial activity against Escherichia coli K-12 assessed as inhibition of visible growth incubated for 18 hrs; assay type: functional
[13] = test system: Acinetobacter baumannii; assay: Antimicrobial activity against Acinetobacter baumannii ATCC 19606 assessed as inhibition of visible growth incubated for 18 hrs; assay type: functional
[14] = test system: Escherichia coli; assay: Antimicrobial activity against Escherichia coli BAA 2469 assessed as inhibition of visible growth incubated for 18 hrs; assay type: functional
[15] = test system: Pseudomonas aeruginosa; assay: Antimicrobial activity against Pseudomonas aeruginosa ATCC 27853 assessed as inhibition of visible growth incubated for 18 hrs; assay type: functional
[16] = test system: Staphylococcus aureus; assay: Antimicrobial activity against Staphylococcus aureus ATCC 29213 assessed as inhibition of visible growth incubated for 18 hrs; assay type: functional
[17] = test system: Enterococcus faecium; assay: Antimicrobial activity against Enterococcus […] ATCC 29212 assessed as inhibition of visible growth incubated for 18 hrs; assay type: functional
[18] = test system: Klebsiella pneumoniae; assay: Antimicrobial activity against Klebsiella pneumoniae BAA 2470 assessed as inhibition of visible growth incubated for 18 hrs; assay type: functional
[19] = test system: Bacillus subtilis; assay: Antimicrobial activity against Bacillus subtilis 168 assessed as inhibition of visible growth incubated for 18 hrs; assay type: functional
[20] = test system: Klebsiella pneumoniae; assay: Antimicrobial activity against Klebsiella pneumoniae BAA 1144 assessed as inhibition of visible growth incubated for 18 hrs; assay type: functional
[21] = test system: Escherichia coli; assay: Bactericidal activity against Escherichia coli K-12; assay type: functional
[22] = test system: Enterococcus faecium; assay: Bactericidal activity against Enterococcus […] ATCC 29212; assay type: functional
[23] = Bactericidal activity against Lysobacter enzymogenes YC36; assay type: functional
[24] = test system: Pseudomonas aeruginosa; assay: Bactericidal activity against Pseudomonas aeruginosa ATCC 27853; assay type: functional
[25] = Bactericidal activity against Lysobacter enzymogenes YC36 with delta qseB mutant assessed as killing of bacterial cells at 2 ug/ml relative to control; assay type: functional
[26] = Antimicrobial activity against Lysobacter enzymogenes YC36 assessed as inhibition of visible growth measured after 7th generation exposure to compound by continuous repeated transfer assay relative to before passage; assay type: functional
[27] = test system: Staphylococcus aureus; assay: Bactericidal activity against Staphylococcus aureus ATCC 29213; assay type: functional
[28] = Bactericidal activity against Lysobacter enzymogenes YC36 with delta qseC mutant assessed as killing of bacterial cells at 2 ug/ml relative to control; assay type: functional
[29] = test system: Bacillus subtilis; assay: Bactericidal activity against Bacillus subtilis 168; assay type: functional
[30] = test system: Shigella flexneri; assay: Bactericidal activity against Shigella flexneri ATCC 29903; assay type: functional
[31] = Antimicrobial activity against Lysobacter enzymogenes YC36 assessed as inhibition of visible growth measured after 7th generation exposure to compound by continuous repeated transfer assay (reference value: 8 ug/ml); assay type: functional
[32] = test system: Acinetobacter baumannii; assay: Bactericidal activity against Acinetobacter baumannii ATCC 19606; assay type: functional; conditions: ATCC 19606 = CIP 70.34 = JCM 6841
[33] = Antimicrobial activity against Lysobacter enzymogenes YC36 assessed as inhibition of visible growth measured after 7th generation exposure to compound by continuous repeated transfer assay (reference value: 4 ug/ml); assay type: functional

Compound: CC[C@@H](C)[C@H]1NC(=O)CNC(=O)[C@@H](CCCNC(=N)N)NC(=O)[C@@H](Cc2ccc(O)cc2)NC(=O)[C@H]2CSSC[C@@H](NC1=O)C(=O)N[C@H](Cc1ccc(O)cc1)C(=O)N[C@H](CCCNC(=N)N)C(=O)N[C@H](CCCNC(=N)N)C(=O)N[C@@H](C(=O)N[C@H](CCCNC(=N)N)C(N)=O)CSSC[C@@H](NC(=O)[C@@H](Cc1c[nH]c3ccccc13)NC(=O)[C@H](N)CCCCN)C(=O)N[C@H](Cc1ccccc1)C(=O)N[C@H](CCCNC(=N)N)C(=O)N[C@H](C(C)C)C(=O)N2 [listing 1 of 2 here]
Activity [1]: Toxic
remaining at 2 h [2]: > 80%
Activity [3]: Non-Toxic
remaining at 6 h [4]: 20%
Activity [5]: Toxic
hemolysis at 1 h, 16 ug/ml [6]: 10%

MIC [7]: > 128 µg/mL
MIC [8]: 2 µg/mL
MIC [9]: 4 µg/mL
MIC [10]: > 128 µg/mL
MIC [11]: 4 µg/mL
MIC [12]: 2 µg/mL
MIC ([13]; ATCC 19606 = CIP 70.34 = JCM 6841): 4 µg/mL
MIC [14]: 2 µg/mL
MIC [15]: 4 µg/mL
MIC [16]: > 128 µg/mL
MIC [17]: > 128 µg/mL
MIC [18]: 2 µg/mL
MIC [19]: 16 µg/mL
MIC [20]: 2 µg/mL
Compound: COLISTIN

Compound: CC[C@@H](C)[C@H]1NC(=O)CNC(=O)[C@@H](CCCNC(=N)N)NC(=O)[C@@H](Cc2ccc(O)cc2)NC(=O)[C@H]2CSSC[C@@H](NC1=O)C(=O)N[C@H](Cc1ccc(O)cc1)C(=O)N[C@H](CCCNC(=N)N)C(=O)N[C@H](CCCNC(=N)N)C(=O)N[C@@H](C(=O)N[C@H](CCCNC(=N)N)C(N)=O)CSSC[C@@H](NC(=O)[C@@H](Cc1c[nH]c3ccccc13)NC(=O)[C@H](N)CCCCN)C(=O)N[C@H](Cc1ccccc1)C(=O)N[C@H](CCCNC(=N)N)C(=O)N[C@H](C(C)C)C(=O)N2 [listing 2 of 2 here]
MIC ([7]; BAA 41, 18 h): 4 µg/mL (≈ 1.77 µM)
MIC ([8]; ATCC 25923, 18 h): 8 µg/mL (≈ 3.53 µM)
MIC ([9]; BAA 2108, 18 h): 8 µg/mL (≈ 3.53 µM)
MBC [21]: 16 to 64 µg/mL (≈ 7.07 to 28.3 µM)
MIC ([10]; BAA 44, 18 h): 4 µg/mL (≈ 1.77 µM)
MBC [22]: 16 to 64 µg/mL (≈ 7.07 to 28.3 µM)
MIC ([11]; BAA 1143, 18 h): 8 µg/mL (≈ 3.53 µM)
MBC [23]: 16 to 64 µg/mL (≈ 7.07 to 28.3 µM)
MIC ([12]; K-12, 18 h): 8 µg/mL (≈ 3.53 µM)
MIC ([13]; ATCC 19606 = CIP 70.34 = JCM 6841, 18 h): 8 µg/mL (≈ 3.53 µM)
MBC [24]: 16 to 64 µg/mL (≈ 7.07 to 28.3 µM)
Activity [25]: <=100%
fold change (FC) [26]: 4
MIC ([14]; BAA 2469, 18 h): 8 µg/mL (≈ 3.53 µM)
MBC [27]: 16 to 64 µg/mL (≈ 7.07 to 28.3 µM)
Activity [28]: <=100%
MIC ([15]; ATCC 27853, 18 h): 8 to 16 µg/mL (≈ 3.53 to 7.07 µM)
MIC ([16]; ATCC 29213, 18 h): 8 µg/mL (≈ 3.53 µM)
MIC ([17]; ATCC 29212, 18 h): 4 µg/mL (≈ 1.77 µM)
MBC [29]: 16 to 64 µg/mL (≈ 7.07 to 28.3 µM)
MBC [30]: 16 to 64 µg/mL (≈ 7.07 to 28.3 µM)
MIC [31]: 16 µg/mL (≈ 7.07 µM)
MBC [32]: 16 to 64 µg/mL (≈ 7.07 to 28.3 µM)
MIC ([18]; BAA 2470, 18 h): 16 µg/mL (≈ 7.07 µM)
MIC [33]: 16 µg/mL (≈ 7.07 µM)
MIC ([19]; Bacillus subtilis, 168, 18 h): 4 µg/mL (≈ 1.77 µM)
MIC ([20]; BAA 1144, 18 h): 16 µg/mL (≈ 7.07 µM)
